Data on two substances can be found in patent US20090197800A1, “Insulin Receptor Binding Peptides with Non-Insulin Gene Activation Profiles and Uses Thereof” (Novo Nordisk A/S, priority 2004, published 2009).

The subject of one data set is human SGBS adipocytes. As to the kind of experiment: cDNA microarray analysis of total RNA from SGBS adipocytes treated with S597 or human insulin. The class given is cell-based. The following applies: 30 nM, 18 hours, vs vehicle. How it is done:
To compare the transcriptional effects of human insulin (HI) and an exemplary IRBP, IRBP S597, cDNA microarray analyses were performed on total RNA from human SGBS adipocytes treated with S597 (30 nM) or human insulin (30 nM) for 18 hours. The microarray hybridizations were carried out as dual color (Cy3/Cy5) hybridizations comparing vehicle treatments to insulin or S597 treatments. Three individual RNA samples from vehicle, S597, and insulin treated cells were compared, and all hybridizations were repeated with reversed dye combination (e.g. vehicle (Cy3) vs. S597 (Cy5) repeated as vehicle (Cy5) vs. S597 (Cy3)). The specific steps employed in this experimental analysis of the effects of HI versus IRBP S597 are described in the following paragraphs.
(§1) A human preadipocyte cell strain derived from subcutaneous adipose tissue of an infant with Simpson-Golabi-Behmel syndrome (SGBS) was plated out in 6 well plates and grown to confluence in DMEM/F12 medium (Gibco) containing 1% biotin, 1% panthothenic acid, 1% penicillin (10000 U)/streptomycin (10000 U), and 10% Fetal bovine serum (Gibco-Invitrogen, Carlsbad Calif. (USA)—“Gibco”). Differentiation of SGBS preadipocytes into adipocytes was induced by adding DMEM/F12 medium (Gibco) containing 1% biotin, 1% panthothenic acid, 1% penicillin (10,000 U)/streptomycin (10,000 U), 100 nM cortisol, […] triiodothyronine, 20 nM insulin, 250 nM dexamethasone (first 6 days), 500 μM IBMX (first 6 days), 2 μM rosiglitazone (first 3 days) and letting cells differentiate for 14 days.
(§2) Before stimulation with insulin and IRBP S597 the differentiated adipocytes were cultured in DMEM/F12 medium (Gibco) containing 1% biotin, 1% panthothenic acid, 1% penicillin (10,000 U)/streptomycin (10,000 U), 100 nM cortisol, and […] triiodothyronine for 2 days. Insulin and S597 (1, 3, 10, 30, 100 nM) were separately added to cells in DMEM/F12 medium (Gibco) containing 1% biotin, 1% panthothenic acid, 1% penicillin (10,000 U)/streptomycin (10,000 U), 100 nM cortisol, 200 pM triiodothyronine, and 0.1% BSA. Following stimulation for 18 h (18 hours), the cells were washed twice in PBS and 1.3 ml SV RNA-lysis buffer (Promega, Madison, Wis.) was added to each well.
(§3) Total RNA was isolated and DNase treated using SV96 total RNA isolation system (Promega, Madison, Wis.) following manufacturer's instructions.
Incyte Easy-To-Spot™ PCR-products (ETS1220 comprising ˜9000 human clones) (Amersham Biosciences) dissolved in 50% DMSO were spotted on to Corning Ultra Gaps slides (Corning Inc., Corning, N.Y.) at 55% relative humidity using the Molecular Dynamics Gen. III microarray spotter (Amersham Biosciences, Buckinghamshire, UK). All slides were baked at 80° C. for 4 h. Approximately 250 ng of total RNA from cells treated with vehicle, human insulin (30 nM) and S597 (30 nM) were used for synthesis of complementary RNA (amplified RNA (aRNA)) using Amino-allyl MessageAmp™ aRNA kit (Ambion, Austin, Tex.). Amino-allyl cDNA was synthesized from 1.5 μg of each RNA-amplification. The aRNA was incubated with random primer at 70° C. for 10 min. and subsequently chilled on ice for 30 sec. The primer annealed RNA was incubated with reaction mixture (1× Superscript II buffer (Life Technologies, Taastrup, Denmark), 10 mM DTT, 200 μM dGAT(−TP) 100 μM dCTP, 100 μM Cy-3/Cy-5-dCTP (Amersham Biosciences), and 200 units of Superscript II reverse transcriptase (Life Technologies, Taastrup, Denmark) at 42° C. for 2 h in a final volume of 20 μl. The RNA template was removed by alkaline denaturation (incubation with 2 μl 2.5 M NaOH at 37° C. for 15 min.). Amino-allyl labeled probes were purified using a Qiagen PCR purification kit (Qiagen). The amino-allyl cDNA was resuspended in 0.1 M NaHCO3 pH 9.0 and coupled to Cy3/Cy5 NHS-ester (Amersham Biosciences) for 1 h at RT in the dark. Unreacted ester groups were quenched by addition of hydroxylamine. Cy3- and Cy5-labeled cDNA was purified using Qiagen PCR purification kit (Qiagen). […]

The subject of a further data set is SGBS adipocytes. Description: quantitative RT-PCR of cholesterol biosynthesis genes in SGBS adipocytes. In kind it is cell-based, human. Particulars: 18 h; for expression level of HMG-CoA synthase 1 (direction of regulation) / expression level of mevalonate (diphospho) decarboxylase (direction of regulation): quantitative RT-PCR, dose dependent, SGBS adipocytes, FIG. 2. How it is done: as §1, §2, §3
(§4) cDNA was prepared from 100 ng of total RNA from each of the treatments (n=3) using random primers and TaqMan® Reverse (Applied Biosystems, Foster City, Calif. (USA)).
(§5) Transcription reagents were used/applied according to the manufacturer's instructions. Quantitative PCR was performed on each of the cDNA samples (10-fold dilutions of cDNA) using TaqMan® PCR core reagents (Applied Biosystems) on an ABI PRISM® 7000 Sequence Detection System (Applied Biosystems). Primers and FAM-labeled-probes for human and rat HMG-CoA reductase (HMGCR), mevalonate (diphospho) decarboxylase (MVD), HMG-CoA synthase 1 (HMGCS1), 18S rRNA, rat fatty acid synthase (FAS), and rat glucose-6-phosphate catalytic subunit (G6PC) were ordered as Assays-on-Demand (Applied Biosystems).
(§6) Probe sequences for these assays were as follows: HMGCR (human AC-[…] (assay Hs00168352_m1) (SEQ ID NO: 34), rat GCAC-[…] (assay Rn00565598_m1) (SEQ ID NO: 35)), MVD (human […] (assay Hs00159403_m1) (SEQ ID NO: 36), rat […] (assay Rn00579216_m1) (SEQ ID NO: 37)), HMGCS1 (human […] (assay Hs00266810_m1) (SEQ ID NO: 38), rat […] (assay Rn00568579_m1) (SEQ ID NO: 39)), 18S rRNA ([…]; assay HS99999901_s1) (SEQ ID NO: 40), FAS (rat […] (assay Rn00569117_m1) (SEQ ID NO: 41)), and G6PC (rat […] (assay Rn00565347_m1) (SEQ ID NO: 42)). Data were analyzed using ABI Prism 7000 SDS software (version 1.0; Applied Biosystems), and expression levels for HMGCR, MVD, HMGCS1, FAS, and were normalized to the 18S rRNA levels.

In another data set the test system is primary rat hepatocytes. As to the kind of experiment: quantitative RT-PCR of mRNA expression in primary rat hepatocytes. In kind it is cell-based. The following applies: 18 h; for effect on HMGCR mRNA level / effect on HMGCS1 mRNA level / effect on MVD mRNA level: 5 doses (0.1, 0.3, 1, 10, 100 nM), FIG. 3; for mRNA expression of fatty acid synthase (direction of regulation) / mRNA expression of glucose-6-phosphate catalytic subunit (direction of regulation): FIG. 4. How it is done: Male Wistar rats (˜200 g) were anaesthetized with a freshly prepared mixture (1:1) of Hyp-norn (0.05 mg/ml fentalyl/2.5 mg/ml fluabizone) and Dormicum (1.25 mg/ml midazolam) administered subcutaneously (1 ml/kg). Hepatocytes were isolated from rats fed ad libitum by a two-step perfusion technique essentially as described by Seglen, Biochem. J. (1999) 342 (545-550). Cell viability, assessed by Trypan Blue exclusion, was consistently greater than 80%. Cells were plated on to collagen-coated six-well plates in basal medium (Medium 199, 5.5 mM glucose supplemented 100 nM decadron, 1% penicillin (10,000 U)/streptomycin (10,000 U), and 1 nM insulin) with 4% fetal calf serum at a cell density of 1.2*10^6 cells/well. The medium was replaced 1 h after initial plating in order to remove dead cells. […] Following stimulation for 18 h, the cells were washed twice in PBS and 1.3 ml SV RNA-lysis buffer (Promega, Madison, Wis.) were added to each well.
as §3, §4, §5, §6

Setting [1] is: quantitative RT-PCR, 1, 3, 10, 30, 100 nM, normalized to 18S, FIG. 1.

Ends that are not written are not given here.

In the case of “Ac-SLEEEWAQIECEVYGRGCPSESFYDWFERQL (cysteine pairing not given here) [S597]”, in the data set with human SGBS adipocytes, the “HMG-CoA reductase (HMGCR) gene downregulation” value is 2.1 fold, the “HMG-CoA synthase 1 (HMGCS1) gene downregulation” value was determined as 1.4 fold and the “mevalonate (diphospho) decarboxylase (MVD) gene downregulation” value was 2.5 fold. Also, the “dose dependant downregulation of HMG-CoA reductase mRNA” value in the data set with SGBS adipocytes (setting [1]) was around 2 fold down. In the data set with SGBS adipocytes, the “expression level of HMG-CoA synthase 1 (direction of regulation)” value is listed as “downregulated” and the “expression level of mevalonate (diphospho) decarboxylase (direction of regulation)” value was “downregulated”. In addition, in the data set on primary rat hepatocytes, the “effect on HMGCR mRNA level” value is on record as “no significant changes”, the “effect on HMGCS1 mRNA level” value is given as “no significant changes”, the “effect on MVD mRNA level” value is reported as “no significant changes” and the “mRNA expression of fatty acid synthase (direction of regulation)” value was “upregulation”. For the same substance, the “mRNA expression of glucose-6-phosphate catalytic subunit (direction of regulation)” value in the data set on primary rat hepatocytes is reported as “downregulation”.
With human insulin, in the data set with human SGBS adipocytes, the “HMG-CoA reductase (HMGCR) gene upregulation” value is reported as 2.3 fold, the “HMG-CoA synthase 1 (HMGCS1) gene upregulation” value turned out to be 2.0 fold and the “mevalonate (diphospho) decarboxylase (MVD) gene upregulation” value came out at 2.1 fold. Further, the “dose dependant upregulation of HMG-CoA reductase mRNA” value in the data set with SGBS adipocytes (setting [1]) is given as around 3 fold up. In addition, in the data set with SGBS adipocytes, the “expression level of HMG-CoA synthase 1 (direction of regulation)” value is recorded as “upregulated” and the “expression level of mevalonate (diphospho) decarboxylase (direction of regulation)” value is listed as “upregulated”. In addition, in the data set with primary rat hepatocytes, the “effect on HMGCR mRNA level” value was “clear upregulating effect”, the “effect on HMGCS1 mRNA level” value was “clear upregulating effect”, the “effect on MVD mRNA level” value is recorded as “clear upregulating effect” and the “mRNA expression of fatty acid synthase (direction of regulation)” value is on record as “upregulation”. In the data set on primary rat hepatocytes, the “mRNA expression of glucose-6-phosphate catalytic subunit (direction of regulation)” value is given as “downregulation”.
